Test results: article PMC10907298 (Nature chemical biology, 2023)
Several values for one entry are separate records, joined by “and”; a condition that tells them apart may be missing. Identical values can stand only once.

Tests used:
[1] = tested on: anti-SIY tumor T cell response; experiment: IFN-γ ELISPOT of PBMC stimulated with SIY peptide; format: in vivo, mouse; conditions: for IFN-γ Spots/2x105 PBMC: 6 days post treatment, SIY peptide, individual animals
mouse STING = target: T1, mouse STING (Mus musculus, UniProt Q3TBT3); experiment: ISRE reporter assay with STING co-transfection in HEK293T cells; format: cell-based
T1 sequence (Q3TBT3 1-378): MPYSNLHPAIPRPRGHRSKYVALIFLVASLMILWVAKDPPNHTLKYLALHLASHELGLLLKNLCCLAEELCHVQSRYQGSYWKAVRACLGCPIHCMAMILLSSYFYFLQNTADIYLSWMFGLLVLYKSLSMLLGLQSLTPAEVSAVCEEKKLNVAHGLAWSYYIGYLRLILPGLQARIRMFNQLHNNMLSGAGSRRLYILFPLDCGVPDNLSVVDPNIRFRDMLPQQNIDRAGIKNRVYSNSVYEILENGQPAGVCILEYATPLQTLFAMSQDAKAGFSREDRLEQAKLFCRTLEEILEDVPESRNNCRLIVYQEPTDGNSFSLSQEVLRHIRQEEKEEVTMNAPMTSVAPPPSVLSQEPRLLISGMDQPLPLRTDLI

human STING L136A = human STING L136A (Homo sapiens, UniProt Q86WV6, L136A); experiment: as above
[2] = tested on: BMDM, human STING knock-in; experiment: IP10 induction in bone marrow-derived macrophages; format: cell-based, mouse; conditions: 50μM, n=1
human STING I103S = human STING I103S (Homo sapiens, UniProt Q86WV6, I103S); experiment: ISRE reporter assay with STING co-transfection in HEK293T cells
human STING Y240C = human STING Y240C (Homo sapiens, UniProt Q86WV6, Y240C); experiment: as above
hSTING(R95A)-GFP = hSTING(R95A)-GFP (Homo sapiens, UniProt Q86WV6, R95A); experiment: STING translocation/aggregate (puncta) assay in HEK293T cells; format: cell-based; conditions: 50 μM, overnight
[3] = tested on: human peripheral blood mononuclear cells (PBMCs); experiment: IFNβ induction in human PBMCs by qRT-PCR; format: cell-based; conditions: for IFN-β mRNA (fold), mean: over untreated
human STING L134A = human STING L134A (Homo sapiens, UniProt Q86WV6, L134A); experiment: ISRE reporter assay with STING co-transfection in HEK293T cells
MC38 tumors = experiment: MC38 flank tumor model in human STING knock-in mice; format: in vivo, mouse; conditions: for Tumor Volume: 800ug intratumorally days 11, 14, 18, individual animals, listed as MGL844
BMDM, mSTING Indel/Indel = experiment: IP10 induction in bone marrow-derived macrophages; format: cell-based, mouse; conditions: 50μM, n=1
[4] = target: purified human STING R95A (Homo sapiens, UniProt Q86WV6, R95A); experiment: native gel analysis of STING oligomerization; conditions: R95A mutant
IFN-γ = IFN-γ level 6 h after intratumoral injection (MSD); format: in vivo, mouse; conditions: for IFNg: 6 hours post-dosing, B16-SIY, hSTING KI mice, individual animals
human STING R94A = human STING R94A (Homo sapiens, UniProt Q86WV6, R94A); experiment: ISRE reporter assay with STING co-transfection in HEK293T cells
human STING R95E = human STING R95E (Homo sapiens, UniProt Q86WV6, R95E); experiment: as above
[5] = intratumoral, days 11, 14 and 18

Chain of human STING I103S (Q86WV6 whole entry I103S): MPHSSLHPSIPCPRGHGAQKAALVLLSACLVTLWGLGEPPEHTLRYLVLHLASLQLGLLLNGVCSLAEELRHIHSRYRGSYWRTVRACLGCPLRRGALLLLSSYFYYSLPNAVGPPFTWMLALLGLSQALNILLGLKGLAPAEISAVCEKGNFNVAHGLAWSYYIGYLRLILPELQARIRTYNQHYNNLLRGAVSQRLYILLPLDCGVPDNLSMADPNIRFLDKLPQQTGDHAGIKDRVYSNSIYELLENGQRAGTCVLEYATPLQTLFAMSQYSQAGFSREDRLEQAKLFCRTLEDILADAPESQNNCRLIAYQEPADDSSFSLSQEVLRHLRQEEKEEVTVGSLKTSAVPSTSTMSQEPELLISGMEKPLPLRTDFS
Chain of human STING L136A (Q86WV6 whole entry L136A): as the sequence (Q86WV6 whole entry I103S) above, with S103I, L136A counted along it
Chain of human STING L134A (Q86WV6 whole entry L134A): as the sequence (Q86WV6 whole entry I103S) above, with S103I, L134A counted along it
Chain of human STING R94A (Q86WV6 whole entry R94A): as the sequence (Q86WV6 whole entry I103S) above, with R94A, S103I counted along it
Chain of purified human STING R95A (Q86WV6 1-343 R95A): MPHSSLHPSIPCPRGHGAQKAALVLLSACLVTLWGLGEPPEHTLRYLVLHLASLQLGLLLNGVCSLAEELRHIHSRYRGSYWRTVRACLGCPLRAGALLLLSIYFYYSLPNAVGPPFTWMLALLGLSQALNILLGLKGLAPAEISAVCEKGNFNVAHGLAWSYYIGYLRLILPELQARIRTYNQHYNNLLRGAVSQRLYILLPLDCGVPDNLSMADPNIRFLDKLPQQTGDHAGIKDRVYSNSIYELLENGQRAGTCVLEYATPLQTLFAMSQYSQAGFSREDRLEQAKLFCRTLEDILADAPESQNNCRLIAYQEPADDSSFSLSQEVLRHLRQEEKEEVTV
Chain of human STING Y240C (Q86WV6 whole entry Y240C): as the sequence (Q86WV6 whole entry I103S) above, with S103I, Y240C counted along it
Chain of human STING R95E (Q86WV6 whole entry R95E): as the sequence (Q86WV6 whole entry I103S) above, with R95E, S103I counted along it
Chain of hSTING(R95A)-GFP (Q86WV6 whole entry R95A): as the sequence (Q86WV6 whole entry I103S) above, with R95A, S103I counted along it

ISRE reporter activity, mean (mouse STING; mSTING WT, Log[μM] 0.3, Figure S1g): -5.609 | ISRE reporter activity, mean (mouse STING; mSTING WT, Log[μM] 1, Figure S1g): -12.1937 | ISRE reporter activity, mean (mouse STING; mSTING WT, Log[μM] 1.7, Figure S1g): -31.614 | ISRE reporter activity, mean (mouse STING; mSTING WT, Log[μM] -0.4, Figure S1g): -7.536 | ISRE reporter activity, mean (mouse STING; mSTING WT, Log[μM] -1.1, Figure S1g): -5.586 | ISRE reporter activity, mean (mouse STING; mSTING WT, Log[μM] -1.8, Figure S1g): -3.154 | ISRE reporter activity, mean (mouse STING; mSTING, Log[μM] 0.2): 0.9 | ISRE reporter activity, mean (mouse STING; mSTING, Log[μM] 0.5): 1 | ISRE reporter activity, mean (mouse STING; mSTING, Log[μM] 0.8): 1.1 | ISRE reporter activity, mean (mouse STING; mSTING, Log[μM] 1.1): 0.8 | ISRE reporter activity, mean (mouse STING; mSTING, Log[μM] 1.4): 0.9 | ISRE reporter activity, mean (mouse STING; mSTING, Log[μM] -0.1): 0.9 | ISRE reporter activity, mean (mouse STING; mSTING, Log[μM] -0.4): 1.1 | ISRE reporter activity, mean (mouse STING; mSTING, Log[μM] -0.7): 1 | ISRE reporter activity, mean (mouse STING; mSTING, Log[μM] -1): 1 | STING activation in words (human STING L136A): enhancement of activity | ISRE reporter activity, mean (human STING L136A; Log[μM] 0.3, Figure 3c): 219.432 | ISRE reporter activity, mean (human STING L136A; Log[μM] 1, Figure 3c): 217.628 | ISRE reporter activity, mean (human STING L136A; Log[μM] -0.4, Figure 3c): 223.566 | ISRE reporter activity, mean (human STING L136A; Log[μM] -1.1, Figure 3c): 146.908 | ISRE reporter activity, mean (human STING L136A; Log[μM] -1.8, Figure 3c): 75.9441 | ISRE reporter activity, mean (human STING L136A; Log[μM] -2.49, Figure 3c): 15.9853 | ISRE reporter activity, mean (human STING L136A; Log[μM] -3.19, Figure 3c): 27.3277 | ISRE reporter activity, mean (human STING I103S; Log[μM] 0.2): 30.5 | ISRE reporter activity, mean (human STING I103S; Log[μM] 0.5): 41.9 | ISRE reporter activity, mean (human STING I103S; Log[μM] 0.8): 48.4 | ISRE reporter activity, mean (human STING I103S; Log[μM] 1.1): 57 | ISRE reporter activity, mean (human STING I103S; Log[μM] 1.4): 55.6 | ISRE reporter activity, mean (human STING I103S; Log[μM] -0.1): 23.3 | ISRE reporter activity, mean (human STING I103S; Log[μM] -0.4): 12.5 | ISRE reporter activity, mean (human STING I103S; Log[μM] -0.7): 7.7 | ISRE reporter activity, mean (human STING I103S; Log[μM] -1): 3.3 | ISRE reporter activity, mean (human STING I103S; Log[μM] -1.3): 1.4 | STING activation in words (human STING Y240C): maintained full agonist activity | STING activation in words (human STING L134A): various degrees of reduction | ISRE reporter activity, mean (human STING L134A; Log[μM] 0.3, Figure 3c): 5.454 | ISRE reporter activity, mean (human STING L134A; Log[μM] 1, Figure 3c): 26.4486 | ISRE reporter activity, mean (human STING L134A; Log[μM] -0.4, Figure 3c): 2.468 | ISRE reporter activity, mean (human STING L134A; Log[μM] -1.1, Figure 3c): -1.106 | ISRE reporter activity, mean (human STING L134A; Log[μM] -1.8, Figure 3c): 1.759 | ISRE reporter activity, mean (human STING L134A; Log[μM] -2.49, Figure 3c): 2.73 | ISRE reporter activity, mean (human STING L134A; Log[μM] -3.19, Figure 3c): 5.607 | STING activation in words (human STING R94A): various degrees of reduction | ISRE reporter activity, mean (human STING R94A; Log[μM] 0.3, Figure 3c): 47.3722 | ISRE reporter activity, mean (human STING R94A; Log[μM] 1, Figure 3c): 64.9079 | ISRE reporter activity, mean (human STING R94A; Log[μM] -0.4, Figure 3c): 7.4732 | ISRE reporter activity, mean (human STING R94A; Log[μM] -1.1, Figure 3c): -0.4286 | ISRE reporter activity, mean (human STING R94A; Log[μM] -1.8, Figure 3c): -0.362 | ISRE reporter activity, mean (human STING R94A; Log[μM] -2.49, Figure 3c): -0.358 | ISRE reporter activity, mean (human STING R94A; Log[μM] -3.19, Figure 3c): -0.1864 | STING activation in words (human STING R95E): essentially irresponsive
SMILES: COc1cc(C(=O)O)ccc1NCc1ccc(C2(C(C)(C)C)OCC(C)(C)CO2)cc1 [NVS-STG2]
IFN-γ Spots/2x105 PBMC ([1]; 400μg intratumorally): 141.667 Spots/2x105 PBMC and 96.3333 Spots/2x105 PBMC and 50 Spots/2x105 PBMC and 252 Spots/2x105 PBMC and 47 Spots/2x105 PBMC and 48 Spots/2x105 PBMC and 38.6667 Spots/2x105 PBMC and 77.3333 Spots/2x105 PBMC and 194.333 Spots/2x105 PBMC | IFN-γ Spots/2x105 PBMC ([1]; 800μg intratumorally): 144 Spots/2x105 PBMC and 181.5 Spots/2x105 PBMC and 154.667 Spots/2x105 PBMC and 138.333 Spots/2x105 PBMC and 210 Spots/2x105 PBMC and 286.333 Spots/2x105 PBMC and 79.5 Spots/2x105 PBMC and 96.3333 Spots/2x105 PBMC | T-cell priming response in words ([1]; B16-SIY, hSTING KI mice): dose dependent and significant induction of T-cell priming response | IP10 ([2]; BMDM hSTING+/+): 5284 pg/mL | IP10 ([2]; BMDM hSTING+/indel): 1541.25 pg/mL | puncta-like structure formation in words (hSTING(R95A)-GFP): lost the ability to form puncta-like structures | IFN-β mRNA (fold), mean ([3]; PBMC genotype HAQ#1, 10 μM): 24.6148 fold | IFN-β mRNA (fold), mean ([3]; PBMC genotype HAQ#1, 100 μM): 370.102 fold | IFN-β mRNA (fold), mean ([3]; PBMC genotype HAQ#2, 10 μM): 529012 fold | IFN-β mRNA (fold), mean ([3]; PBMC genotype HAQ#2, 100 μM): 34427.4 fold | IFN-β mRNA (fold), mean ([3]; PBMC genotype REF#1, 10 μM): 192734 fold | IFN-β mRNA (fold), mean ([3]; PBMC genotype REF#1, 100 μM): 7313.6 fold | IFN-β mRNA (fold), mean ([3]; PBMC genotype REF#2, 10 μM): 8165.95 fold | IFN-β mRNA (fold), mean ([3]; PBMC genotype REF#2, 100 μM): 264.523 fold | IFN-β mRNA (fold), mean ([3]; PBMC genotype WT, 10 μM): 31715.8 fold | IFN-β mRNA (fold), mean ([3]; PBMC genotype WT, 100 μM): 20856.8 fold | IFNβ induction in words ([3]; human PBMCs, WT/REF/HAQ donors): high levels of IFNβ induction comparable to cGAMP | Tumor Volume (MC38 tumors; day 10 post implant (before dosing)): 24.276 mm3 and 31.79 mm3 and 33.2145 mm3 and 35.594 mm3 and 59.168 mm3 and 64.512 mm3 and 74.431 mm3 and 81.466 mm3 and 88.36 mm3 | Tumor Volume (MC38 tumors; day 13 post implant): 23.275 mm3 and 45.6 mm3 and 74.925 mm3 and 56.074 mm3 and 80 mm3 and 91.936 mm3 and 95.648 mm3 and 133.28 mm3 and 139.707 mm3 | Tumor Volume (MC38 tumors; day 17 post implant): 23.04 mm3 and 36.414 mm3 and 64 mm3 and 34.2225 mm3 and 103.933 mm3 and 63.36 mm3 and 159.359 mm3 and 161.863 mm3 and 433.026 mm3 | Tumor Volume (MC38 tumors; day 20 post implant): 22.869 mm3 and 51.2 mm3 and 79.35 mm3 and 50.336 mm3 and 114.92 mm3 and 64.512 mm3 and 236.927 mm3 and 137.641 mm3 and 854.024 mm3 | Tumor Volume (MC38 tumors; day 25 post implant): 19.2 mm3 and 213.4 mm3 and 75.5 mm3 and 32 mm3 and 106.3 mm3 and 28.3 mm3 and 491.7 mm3 and 148.2 mm3 | Tumor Volume (MC38 tumors; day 28 post implant): 14.4 mm3 and 499.6 mm3 and 105 mm3 and 45.5 mm3 and 173.2 mm3 and 59.7 mm3 and 259.5 mm3 | Tumor Volume (MC38 tumors; day 31 post implant): 12.9 mm3 and 87.7 mm3 and 40 mm3 and 257.7 mm3 and 74.1 mm3 and 418.1 mm3 | Tumor Volume (MC38 tumors; day 33 post implant): 6.5 mm3 and 126 mm3 and 55.7 mm3 and 399.2 mm3 and 98.3 mm3 and 556.3 mm3 | mice with no tumor growth during the 33-day experimental period (MC38 tumors; [5]): 4 out of 9 | tumor growth in words (MC38 tumors; [5]): slowed tumor growth significantly | IP10 (BMDM, mSTING Indel/Indel): 20 pg/mL | induction of STING oligomerization in words [4]: notable defect in higher-order oligomer formation | IFNg (IFN-γ; 400μg intratumorally): 39.4953 pg/mL and 46.0042 pg/mL and 12.5471 pg/mL and 24.0798 pg/mL and 11.9723 pg/mL and 24.0458 pg/mL and 11.7115 pg/mL and 37.7 pg/mL and 31.9987 pg/mL | IFNg (IFN-γ; 800μg intratumorally): 69.5013 pg/mL and 56.155 pg/mL and 39.6205 pg/mL and 20.7743 pg/mL and 42.9846 pg/mL and 43.1066 pg/mL and 31.0552 pg/mL and 38.6876 pg/mL and 47.5545 pg/mL | plasma IFNγ level in words (IFN-γ; 6-hour post dosing): significant increase of plasma IFNγ level
